Reference: patent EP0726072A2, “Composition for the treatment of hypertension and congestive heart failure, containing an angiotensin II antagonist and an endopeptidase inhibitor” (BRISTOL-MYERS SQUIBB COMPANY, priority 1995, dated 1996)

System: 1K1C hypertensive dogs
Test: Haemodynamic, renal and hormonal effects in conscious 1-kidney-1-clip hypertensive dogs
Assay type: in vivo
Procedure: The studies described in this experiment were conducted in dogs that had been rendered hypertensive by prior unilateral nephrectomy and constriction of the remaining renal artery. This model is characterized by normal basal levels of plasma renin activity and is relatively resistant to the anti-hypertensive activity of angiotensin converting enzyme inhibitors and AT1 receptor antagonists.
The following experiments were conducted in fasted 1K1C hypertensive dogs lightly restrained in standard canine slings. An indwelling arterial catheter was accessed via a subcutaneous port for measurement of blood pressure via a Gould-Statham pressure transducer. Mean arterial pressure (MAP) was continuously recorded on a Gould chart writer and stored electronically using a Po-Ne-Mah data acquisition system. During each study, urine was collected at 20 minute intervals via a Foley bladder catheter for determination of urine volume. The concentrations of urinary sodium and potassium were measured using ion-selective electrodes and their rates of urinary excretion (µEq/min) were calculated. Glomerular filtration rate (GFR) and effective renal plasma flow (ERPF) were determined by the renal clearances of exogenous creatinine and para-aminohippuric acid (PAH), respectively. The concentrations of creatinine and PAH in sequential samples of urine and plasma were determined by spectrophotometric assays and the clearances were calculated by the standard formula.
Arterial blood samples were drawn at the end of the control period and at 60 minute intervals thereafter for determination of the plasma concentrations of atrial natriuretic peptide (ANP), cyclic GMP and plasma renin activity (PRA) by separate radioimmunoassays. The plasma and urine samples were preserved and the assays were conducted according to standard radioimmunoassay procedures. Urinary excretion rates of cyclic GMP and ANP were calculated and expressed as pmol/min and fmol/min, respectively.
In each study, baseline measurements were obtained during two 20 minute control periods. One of the treatments was then administered and sampling continued at 20 minute intervals for three hours.
To minimize inter-animal variability, each data point was expressed as the change from the average control value for that parameter. Significant differences among treatments were identified by analysis of variance for repeated measures. […] Results are given as mean ± SEM.

[1] = 20 min after treatment, 30 µmol/kg iv of each agent
[2] = 40 min after treatment, 30 µmol/kg iv of each agent
[3] = 60 min after treatment, 30 µmol/kg iv of each agent
[4] = 80 min after treatment, 30 µmol/kg iv of each agent
[5] = 100 min after treatment, 30 µmol/kg iv of each agent
[6] = 120 min after treatment, 30 µmol/kg iv of each agent
[7] = 140 min after treatment, 30 µmol/kg iv of each agent
[8] = 160 min after treatment, 30 µmol/kg iv of each agent
[9] = 180 min after treatment, 30 µmol/kg iv of each agent

Question: For `O=C(O)CCNC(=O)C(CS)Cc1ccccc1` (racemic) [SQ 28603, (±)-N-[2-(mercaptomethyl)-1-oxo-3-phenylpropyl]-β-alanine], which “increase in the amount of sodium excreted during the 3 hours after injection” value (30 µmol/kg iv of each agent, cumulative over 3 hours) is on record?
Answer: Its value is 5.2±2.3 mEq/3 hr.

Question: And the “Cyclic GMP excretion, change over 3 hr” value (30 µmol/kg iv of each agent, not statistically significant compared to vehicle)?
Answer: The value was “+32±28 nmol/3 hr”.

Question: And the “ANP Excretion, Change from control” value [1]?
Answer: The value was 20.8 ± 4.9 fmol/min.

Question: And the “Cyclic GMP Excretion, Change from control” value [1]?
Answer: The value was 106 ± 295 pmol/min.

Question: What about the “Effective Renal Plasma Flow, Change from control” value [1] of the same molecule?
Answer: The value was 6 ± 38 mL/min.

Question: And the “Glomerular Filtration Rate, Change from control” value [1]?
Answer: The value was 6 ± 11 mL/min.

Question: What about the “Mean Arterial Pressure, Change from control” value (“Mean Arterial Pressure, Change” below) [1] of the same molecule?
Answer: The value was 6±1 mm Hg.

Question: What about the “Sodium Excretion, Change from control” value [1] of the same molecule?
Answer: The value was 13±4 µEq/min.

Question: What about the “Urine Volume, Change from control” value [1] of the same molecule?
Answer: Its value is 0.29 ± 0.31 mL/min.

Question: What about the “ANP Excretion, Change from control” value [2] of the same molecule?
Answer: Its value is 24.0 ± 4.6 fmol/min.

Question: And the “Cyclic GMP Excretion, Change from control” value [2]?
Answer: Its value is 101 ± 280 pmol/min.

Question: And the “Effective Renal Plasma Flow, Change from control” value [2]?
Answer: The value was -5 ± 15 mL/min.

Question: What about the “Glomerular Filtration Rate, Change from control” value [2] of the same molecule?
Answer: The value was 3 ± 2 mL/min.

Question: What about the “Mean Arterial Pressure, Change” value [2] of the same molecule?
Answer: The value was 9±3 mm Hg.

Question: What about the “Sodium Excretion, Change from control” value [2] of the same molecule?
Answer: The value was 21±16 µEq/min.

Question: And the “Urine Volume, Change from control” value [2]?
Answer: The value was 0.15 ± 0.13 mL/min.

Question: What about the “ANP Excretion, Change from control” value [3] of the same molecule?
Answer: The value was 45.2 ± 24.2 fmol/min.

Question: What about the “Cyclic GMP Excretion, Change from control” value [3] of the same molecule?
Answer: Its value is 338 ± 206 pmol/min.

Question: What about the “Effective Renal Plasma Flow, Change from control” value [3] of the same molecule?
Answer: The value was 3 ± 20 mL/min.

Question: What about the “Glomerular Filtration Rate, Change from control” value [3] of the same molecule?
Answer: Its value is 6 ± 5 mL/min.

Question: What about the “Mean Arterial Pressure, Change” value [3] of the same molecule?
Answer: The value was 8±3 mm Hg.

Question: What about the “Plasma Renin Activity, Change from control” value (“Plasma Renin Activity, Change” below) [3] of the same molecule?
Answer: The value was -0.07±0.05 pmol AI/ml/hr.

Question: And the “Sodium Excretion, Change from control” value [3]?
Answer: The value was 14±9 µEq/min.

Question: And the “Urine Volume, Change from control” value [3]?
Answer: The value was 0.18 ± 0.14 mL/min.

Question: What about the “ANP Excretion, Change from control” value [4] of the same molecule?
Answer: Its value is 55.5 ± 19.7 fmol/min.

Question: And the “Cyclic GMP Excretion, Change from control” value [4]?
Answer: The value was 226 ± 154 pmol/min.

Question: And the “Effective Renal Plasma Flow, Change from control” value [4]?
Answer: Its value is -20 ± 6 mL/min.

Question: And the “Glomerular Filtration Rate, Change from control” value [4]?
Answer: The value was 5 ± 2 mL/min.

Question: What about the “Mean Arterial Pressure, Change” value [4] of the same molecule?
Answer: The value was 8±2 mm Hg.

Question: And the “Sodium Excretion, Change from control” value [4]?
Answer: Its value is 25±13 µEq/min.

Question: And the “Urine Volume, Change from control” value [4]?
Answer: The value was 0.21 ± 0.15 mL/min.

Question: And the “ANP Excretion, Change from control” value [5]?
Answer: Its value is 41.0 ± 12.3 fmol/min.

Question: What about the “Cyclic GMP Excretion, Change from control” value [5] of the same molecule?
Answer: The value was 128 ± 178 pmol/min.

Question: And the “Effective Renal Plasma Flow, Change from control” value [5]?
Answer: Its value is -25 ± 10 mL/min.

Question: What about the “Glomerular Filtration Rate, Change from control” value [5] of the same molecule?
Answer: Its value is 5 ± 4 mL/min.

Question: What about the “Mean Arterial Pressure, Change” value [5] of the same molecule?
Answer: The value was 5±3 mm Hg.

Question: What about the “Sodium Excretion, Change from control” value [5] of the same molecule?
Answer: The value was 24±12 µEq/min.

Question: What about the “Urine Volume, Change from control” value [5] of the same molecule?
Answer: The value was 0.07 ± 0.08 mL/min.

Question: What about the “ANP Excretion, Change from control” value [6] of the same molecule?
Answer: Its value is 48.3 ± 21.5 fmol/min.

Question: And the “Cyclic GMP Excretion, Change from control” value [6]?
Answer: The value was 117 ± 220 pmol/min.

Question: And the “Effective Renal Plasma Flow, Change from control” value [6]?
Answer: The value was -15 ± 6 mL/min.

Question: And the “Glomerular Filtration Rate, Change from control” value [6]?
Answer: Its value is 5 ± 1 mL/min.

Question: What about the “Mean Arterial Pressure, Change” value [6] of the same molecule?
Answer: The value was 3±4 mm Hg.

Question: What about the “Plasma Renin Activity, Change” value [6] of the same molecule?
Answer: The value was -0.02±0.05 pmol AI/ml/hr.

Question: What about the “Sodium Excretion, Change from control” value [6] of the same molecule?
Answer: Its value is 35±19 µEq/min.

Question: And the “Urine Volume, Change from control” value [6]?
Answer: Its value is 0.12 ± 0.13 mL/min.

Question: What about the “ANP Excretion, Change from control” value [7] of the same molecule?
Answer: The value was 41.8 ± 14.2 fmol/min.

Question: And the “Cyclic GMP Excretion, Change from control” value [7]?
Answer: The value was 121 ± 182 pmol/min.

Question: What about the “Effective Renal Plasma Flow, Change from control” value [7] of the same molecule?
Answer: Its value is -11 ± 12 mL/min.

Question: And the “Glomerular Filtration Rate, Change from control” value [7]?
Answer: Its value is 7 ± 4 mL/min.

Question: And the “Mean Arterial Pressure, Change” value [7]?
Answer: Its value is 4±2 mm Hg.

Question: What about the “Sodium Excretion, Change from control” value [7] of the same molecule?
Answer: Its value is 39±18 µEq/min.

Question: And the “Urine Volume, Change from control” value [7]?
Answer: Its value is 0.20 ± 0.10 mL/min.

Question: What about the “ANP Excretion, Change from control” value [8] of the same molecule?
Answer: Its value is 36.9 ± 12.4 fmol/min.

Question: And the “Cyclic GMP Excretion, Change from control” value [8]?
Answer: Its value is 100 ± 246 pmol/min.

Question: And the “Effective Renal Plasma Flow, Change from control” value [8]?
Answer: The value was -1 ± 12 mL/min.

Question: And the “Glomerular Filtration Rate, Change from control” value [8]?
Answer: Its value is 9 ± 5 mL/min.

Question: What about the “Mean Arterial Pressure, Change” value [8] of the same molecule?
Answer: Its value is 5±2 mm Hg.

Question: What about the “Sodium Excretion, Change from control” value [8] of the same molecule?
Answer: Its value is 44±19 µEq/min.

Question: What about the “Urine Volume, Change from control” value [8] of the same molecule?
Answer: Its value is 0.24 ± 0.11 mL/min.

Question: What about the “ANP Excretion, Change from control” value [9] of the same molecule?
Answer: The value was 29.0 ± 7.9 fmol/min.

Question: And the “Cyclic GMP Excretion, Change from control” value [9]?
Answer: Its value is 343 ± 170 pmol/min.

Question: And the “Effective Renal Plasma Flow, Change from control” value [9]?
Answer: The value was -4 ± 9 mL/min.

Question: What about the “Glomerular Filtration Rate, Change from control” value [9] of the same molecule?
Answer: Its value is 10 ± 4 mL/min.

Question: What about the “Mean Arterial Pressure, Change” value [9] of the same molecule?
Answer: Its value is 7±3 mm Hg.

Question: What about the “Plasma Renin Activity, Change” value [9] of the same molecule?
Answer: Its value is -0.01±0.7 pmol AI/ml/hr.

Question: What about the “Sodium Excretion, Change from control” value [9] of the same molecule?
Answer: The value was 44±18 µEq/min.

Question: What about the “Urine Volume, Change from control” value [9] of the same molecule?
Answer: Its value is 0.17 ± 0.06 mL/min.

Question: And the “ANP Excretion” value (Control, before treatment)?
Answer: Its value is 1.9 ± 0.2 fmol/min.

Question: What about the “Cyclic GMP Excretion” value (Control, before treatment) of the same molecule?
Answer: The value was 1017 ± 180 pmol/min.

Question: What about the “Effective Renal Plasma Flow” value (Control, before treatment) of the same molecule?
Answer: The value was 123 ± 15 mL/min.

Question: And the “Glomerular Filtration Rate” value (Control, before treatment)?
Answer: The value was 39 ± 5 mL/min.

Question: And the “Mean Arterial Pressure” value (Control, before treatment)?
Answer: The value was 132±8 mm Hg.

Question: And the “Plasma Renin Activity” value (Control, before treatment)?
Answer: The value was 0.16±0.02 pmol AI/ml/hr.

Question: And the “Sodium Excretion” value (Control, before treatment)?
Answer: The value was 40±20 µEq/min.

Question: What about the “Urine Volume” value (Control, before treatment) of the same molecule?
Answer: Its value is 0.38 ± 0.13 mL/min.

Question: And the “sodium excretion, effect in words” value (summary of TABLE 2, 30 µmol/kg iv of each agent, 3 hours)?
Answer: The value was “increased”.

Question: What about the “urine volume, effect in words” value (summary of TABLE 3, 30 µmol/kg iv of each agent, 3 hours) of the same molecule?
Answer: The value was “increased”.

Question: And the “Urinary excretion of ANP, effect in words” value (summary of TABLE 6, 30 µmol/kg iv of each agent)?
Answer: Its value is “increased significantly”.

Question: What about the “mean arterial pressure (MAP), effect in words” value (summary of Table 1, 30 µmol/kg iv of each agent, 3 hours) of the same molecule?
Answer: Its value is “initially increased”.
